Data on one compound can be found in PMC7352571, “New Anti-Cancer Strategy to Suppress Colorectal Cancer Growth Through Inhibition of ATG4B and Lysosome Function” (Cancers, 2020).

Data set [1] concerns HCT116 cells. Briefly: wound healing assay. The settings on record: 10 µM, 48 h. The data set is classed as cell-based, Human. The protocol: Cells were seeded in 12-well plates. After the cells grew to confluence, wounds were made by sterile pipette tips. The cells were photographed at the beginning of wound formation. […] The distance of cell migration was calculated from three independent experiments.

The subject of data set [2] is LC3-II in HCT116 cells. The experiment in a line: western blot for LC3 conversion, HCT116. The settings on record: 1, 5, 10, 20 µM for 6 h; 10 µM time course. In general terms: In western blotting, separated proteins are transferred to a membrane and probed.
Method: The ratio of LC3B-II/TUBA was calculated using ImageJ software. […] The ratio of LC3B-II/TUBA was calculated using ImageJ software. […] Data are presented as mean ± SEM from three individual experiments. ** p < 0.01, *** p <0.001, ns, not significant.
20–30 µg of whole cell lysates were separated by SDS-PAGE to avoid saturation and transferred to PVDF membranes (Millipore, ISEQ00010, Burlington, MA, USA). After blocking, the membrane was incubated with primary antibodies and secondary antibodies. Specific proteins were detected using enhanced chemiluminescence developing agent (Millipore, WBULS0500). Images were taken using Kodak Image Station 4000 (Carestream Health, Rochester, NY, USA).
Data set [3] deals with LC3B and LAMP1 in HeLa cells. Briefly: immunostaining, colocalization of LC3B and LAMP1. It is filed as cell-based. The note with it: 10 µM, 6 h. The method, then: Figure 4 163N increases the accumulation of autolysosomes. (A) HEK293A cells expressing green fluorescent protein (GFP)-red fluorescent protein (RFP)-LC3 were treated with 163N (10 µM), rapamycin (Rap) (1 µM) or Baf (0.5 µM) for 6 h, then the colocalization of GFP and RFP puncta was detected. […] The colocalization of LC3B and LAMP1 was measured. […] Red arrows indicate normal autolysosome structures. (D) ATG4BKO HeLa cells expressing GFP-LC3[G120] or full length GFP-LC3 were treated with Rap (1 µM), 163N (10 µM), or CQ (40 µM) for 6 h, then the distribution of GFP-LC3 was examined. And the number of GFP-LC3 dots were quantified.
(§1) Immunostaining assay was performed as described previously. Cells were fixed in 4% paraformaldehyde for 15–20 min followed by permeabilization with 0.1% Triton X-100 for another 15 min. Then, PBS containing 5% bovine serum albumin was used for blocking. Primary antibodies (1:150) was used at 4° for one night and then secondary antibodies (1:500) were applied at room temperature for 1 h. EVOS FL Auto (Life Technologies) was used to get the fluorescence images. At least three optical fields with at least 100 cells were analyzed for quantification.

The test system of data set [4] is MGC803 cells. Briefly: CCK-8 cell viability assay, MGC803. It is filed as cell-based. The settings on record: Homo sapiens, MGC-803; CCK-8 assay, 48 h. The protocol: (§2) Cells were seeded and incubated overnight in 96-well plates at a density of 5 × 10^3 cells/well. […] A total of 10 µL CCK-8 were added to each well for additional 1 h and cell viability was measured by CCK-8 assay. Absorbance was measured at 450 nm. The IC50 values were calculated by GraphPad Prism 7 (GraphPad Software Inc., San Diego, CA, USA).
In general terms: Tetrazolium assays rely on reduction of a dye to a coloured formazan, in cell work by metabolically active cells.

Data set [5] deals with GFP-LC3 A549 cells. The experiment in a line: GFP-LC3 dots in A549 cells stably expressing GFP-LC3. The settings on record: 6 h at different concentrations or 10 µM over time course. It is filed as cell-based.
Data set [6] has as its system HL60 cells. The experiment in a line: CCK-8 cell viability assay, HL60. It is filed as cell-based. The note with it: Homo sapiens, HL-60; CCK-8 assay. The protocol:
as §2

Data set [7] concerns SQSTM1 in HeLa cells. The experiment in a line: immunostaining of SQSTM1 dots. The settings on record: 10 µM, 6 h.
The test system of data set [8] is lysosome acidity in HeLa cells. The experiment in a line: LysoTracker Red (LTR) assay, HeLa. The settings on record: 6 h, 163N 5 or 10 µM, Rap 1 µM, E64D 25 µM plus pepstatin A 50 µM. The data set is classed as cell-based. The protocol: (§3) Figure 5 163N causes lysosome dysfunction. […] (C) HeLa cells were treated with or without 163N (10 µM) for 6 h, followed by immunostaining using cathepsin B and LAMP1 antibody. The colocalization of cathepsin B and LAMP1 was measured.
LTR assay: cells were incubated with LTR (25 nM) in HBSS medium at 37° for 30 min, and then fluorescence microscopy was used for detecting fluorescence intensity.

Data set [9] has as its system ATG16L1 KO Hela cells. The experiment in a line: CCK-8 assay, ATG16L1 KO Hela cells. It is filed as cell-based. The note with it: Homo sapiens. The method, then: as §2
Figure S4. The identification of ATG4B knockout HCT116 cells. (A) The genomic DNA of HCT116 cells in the control group transfected with GFP-sgRNA and the experimental group transfected with ATG4B-sgRNA was used as a template for PCR, and the PCR products were used for sequencing. (B) Protein levels of ATG 4B and LC3B in the control and ATG4BKO cells.
Figure S5. 163N induces cell death through targeting autophagy. (A) Hela cells were treated with […]
performed to assess cell proliferation. ( B) Hela cells or ATG16L1 KO Hela cells were treated with […]

The subject of data set [10] is lysosomal membrane permeabilization in HeLa cells. Briefly: immunostaining, colocalization of cathepsin B and LAMP1. The settings on record: 10 µM, 6 h. It is filed as cell-based. The method, then:
as §3, §1

In data set [11] the test system is A549 cells. Briefly: CCK-8 cell viability assay, A549. It is filed as cell-based. The note with it: Homo sapiens, CCK-8 assay, 48 h. The protocol: as §2
The subject of data set [12] is MDA-MB-231 cells. The experiment in a line: CCK-8 cell viability assay, MDA-MB-231. It is filed as cell-based. The note with it: Homo sapiens, CCK-8 assay, 48 h. The protocol: as §2
For data set [13], the system named is T98G cells. Briefly: CCK-8 cell viability assay, T98G. The note with it: Homo sapiens, CCK-8 assay, 48 h. The data set is classed as cell-based. The protocol: as §2
The test system of data set [14] is HCT116 cells. Briefly: real-time cellular analysis (RTCA). The data set is classed as cell-based, Human. The note with it: 2 µM, wild type HCT116. The method, then: An E-Plate 16 (ACEA Biosciences, Hangzhou, China) was prepared with 50 µL of DMEM medium added to each well to do a background measurement in the xCELLigence instrument (ACEA Biosciences, China). 100 µL of passaged cell suspensions containing 2.5 × 10^3 cells were added to each well and then cells were settled on the base of the well for 30 min at room temperature. The plate was inserted into the RTCA system (housed within the incubator) and cell index (CI) values were assessed every 5 min over the following 72 h. After 24 h of cell seeding, the assay was paused and 2 µM 163N was added to each well. Then, the plate was placed in the station again and the analysis was restarted. After completing a total of 72 h of analysis, the data were analyzed with GraphPad 7.0 software.

For data set [15], the target named is T1, caspase-3 (Homo sapiens, UniProt P42574).
T1 construct: endogenous in cells; host or cells: HeLa (staurosporine-treated, whole cell lysate)
T1 sequence (P42574 29-175 limits assumed): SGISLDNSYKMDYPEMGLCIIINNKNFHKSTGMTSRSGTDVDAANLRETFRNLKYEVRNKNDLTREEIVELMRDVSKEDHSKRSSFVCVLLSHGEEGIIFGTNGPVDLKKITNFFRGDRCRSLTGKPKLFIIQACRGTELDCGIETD
T1 sequence (P42574 176-277 limits assumed): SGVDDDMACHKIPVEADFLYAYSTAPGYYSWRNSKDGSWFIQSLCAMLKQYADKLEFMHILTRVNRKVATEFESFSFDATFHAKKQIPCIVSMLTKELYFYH
Briefly: caspase-3 activity assay (Ac-DEVE-AFC cleavage in lysate of staurosporine-treated HeLa cells). It is filed as biochemical. The note with it: even at a concentration of 50 µM. The protocol: . (B) Predicted binding model of compound XOS00163, XOS00201, and XOS00207 bind to ATG4B (PDB ID: 2CY7) pocket. […] . […] . HeLa cells were treated with 1 µM of staurosporine (SP) for 12 h to induce cell apoptosis. Then, 2 µg of the whole cell lysate were mixed with indicated compounds at 37° for 30 min, Ac-DEVE-AFC (25 µM) were then added to a volume of 50 µL, and the emission of 505 nm for AFC was recorded. […] |

For data set [16], the system named is HCT116 cells. Briefly: CCK-8 cell viability assay, HCT116. The data set is classed as cell-based, Human. The method, then: as §2
For data set [17], the system named is KYSE150 cells. Briefly: CCK-8 cell viability assay, KYSE150. It is filed as cell-based. The settings on record: Homo sapiens, KYSE-150; CCK-8 assay, 48 h. The method, then:
as §2

For data set [18], the system named is U87 cells. Briefly: CCK-8 cell viability assay, U87. The note with it: Homo sapiens, U-87 MG; CCK-8 assay, 48 h. It is filed as cell-based. The method, then:
as §2

On to `COc1ccc(Nc2cc(C)nc(Nc3ccc(-c4cc5ccccc5o4)cc3)n2)cc1` [Compound 163N], for which the “migration of wild type HCT116 cells” value in data set [1] is “significantly inhibited the migration”. Moreover, the “LC3-II level, HCT116” value in [2] was “dose- and time-dependent accumulation of LC3-II”. For the same compound, the “LC3 puncta and co-localization with LAMP1” value in data set [3] was “remarkable increase of LC3 puncta, which were well co-localized with LAMP1”. Besides, the IC50 (as a rule, the midpoint of a concentration-inhibition curve) in [4] was determined as 9.33 µM; in data set [6] it was 12.6 µM; in data set [9], 12.4 µM; in data set [11] it was 7.68 µM; in data set [12] it was 9.99 µM; in [13], 7.23 µM. Besides, the IC50 in data set [16] (Homo sapiens, HCT-116, CCK-8 assay, 48 h) turned out to be 5.76 µM; in data set [17], 13 µM; in data set [18] it was 10.6 µM. For the same compound, in [5], the GFP-LC3 dots result was “accumulation of GFP-LC3 dots in dose- and time-dependent manners”. Further, the “degradation of autophagic substrate SQSTM1” value in data set [7] was “significantly attenuated the degradation of the autophagic substrate SQSTM1”. Moreover, the “LTR red fluorescence / acidic vesicles” value in data set [8] is “significant reduction in acidic vesicles”. For the same compound, in data set [10], the “lysosomal membrane permeabilization (cathepsin B/LAMP1 colocalization)” value is “did not produce lysosomal membrane permeabilization”. Also, in [14], the “cytotoxic effect in RTCA” value was “significant cytotoxic effects”. Besides, the “inhibition effect on caspase-3 activity” value in data set [15] is on record as “no inhibition effect”. Besides, the “cytotoxicity relative to XOS00163, XOS00201 and XOS00207, HCT116” value in data set [16] (HCT116 cells) is on record as “about five times higher cytotoxicity”.
